# Test results from ChEMBL document CHEMBL4732064, “Structure-activity relationship studies of phenothiazine derivatives as a new class of ferroptosis inhibitors together with the therapeutic effect in an ischemic stroke model” (Eur J Med Chem, 2021).
# Active and inactive are the calls of the source. The calls are words filed in the database; no cut-off is given here.
# Tested on: HT-1080
# Test: Inhibition of H2O2-induced oxidative cell death in human HT-1080 cells at 10 uM incubated for 24 hrs
# Format: functional, cell-based
# Settings: not given
row,Compound,Activity
1,CCOC(=O)c1ccc(NC2CCCCC2)c(N)c1,inactive

# Tested on: HT-1080
# Test: Inhibition of erastin-induced ferroptosis in human HT-1080 cells assessed as cell viability incubated for 48 hrs by MTT assay
# Format: functional, cell-based
# Settings: HT-1080, 48 h
row,Compound,EC50 [nM]
1,CC(c1ccc(NC(=O)OC(C)(C)C)cc1)c1ccc2c(c1)Nc1ccccc1S2 (configuration not stated),39
2,CC(c1ccc2c(c1)Nc1ccccc1S2)S(=O)(=O)N1CCN(S(C)(=O)=O)CC1 (configuration not stated),35
3,Cc1cc(Cl)cc(C(C)c2ccc3c(c2)Nc2ccccc2S3)c1 (configuration not stated),24
4,CCc1cccc(C(C)c2ccc3c(c2)Nc2ccccc2S3)c1 (configuration not stated),18
5,CCN1CCN(S(=O)(=O)C(C)c2ccc3c(c2)Nc2ccccc2S3)CC1 (configuration not stated),32
6,CC(c1cccc(F)c1)c1ccc2c(c1)Nc1ccccc1S2 (configuration not stated),6
7,CC(c1ccc(F)c(Cl)c1)c1ccc2c(c1)Nc1ccccc1S2 (configuration not stated),5
8,CC(OC(=O)CCN1c2ccccc2Sc2ccccc21)c1ccc(F)cc1 (configuration not stated),> 10000
9,COc1ccc(C(C)c2ccc3c(c2)Nc2ccccc2S3)cc1OC (configuration not stated),7
10,Cc1cc(C)cc(C(C)c2ccc3c(c2)Nc2ccccc2S3)c1 (configuration not stated),21
11,CC(OC(=O)c1ccccc1)c1ccc2c(c1)Nc1ccccc1S2 (configuration not stated),13
12,COc1cc(C(C)c2ccc3c(c2)Nc2ccccc2S3)ccc1F (configuration not stated),25
13,CC(C)N1CCN(S(=O)(=O)C(C)c2ccc3c(c2)Nc2ccccc2S3)CC1 (configuration not stated),25
14,CC(c1ccc(N2CCOCC2)cc1)c1ccc2c(c1)Nc1ccccc1S2 (configuration not stated),13
15,CC(c1ccccc1)c1ccc2c(c1)Nc1ccccc1S2 (configuration not stated),4
16,Cc1ccc(C)c(NC(=O)CN(C)C(=O)CCN2c3ccccc3Sc3ccccc32)c1,5240
17,CCCCc1ccc(C(C)c2ccc3c(c2)Nc2ccccc2S3)cc1 (configuration not stated),64
18,CC(c1ccc(C#N)cc1)c1ccc2c(c1)Nc1ccccc1S2 (configuration not stated),6
19,COc1cc(C(C)c2ccc3c(c2)Nc2ccccc2S3)ccc1Cl (configuration not stated),22
20,COc1ccc2c(c1)Nc1ccccc1S2,1750
21,CC(=O)N1c2ccccc2Sc2ccccc21,1150
22,CC(c1ccc(OCc2ccccc2)cc1)c1ccc2c(c1)Nc1ccccc1S2 (configuration not stated),14
23,CC(c1ccc2c(c1)Nc1ccccc1S2)S(=O)(=O)N1CCOCC1 (configuration not stated),67
24,CC(c1ccc2c(c1)Nc1ccccc1S2)c1ccc(F)c(OCc2ccccc2)c1 (configuration not stated),35
25,CC(C)Oc1cccc(C(C)c2ccc3c(c2)Nc2ccccc2S3)c1 (configuration not stated),15

row,Compound,EC50 [nM]
1,O=Cc1ccc2c(c1)Nc1ccccc1S2,142
2,CCN(CC)CC(O)CN1c2ccccc2Sc2ccccc21 (configuration not stated),4420
3,CC(c1ccc2c(c1)Nc1ccccc1S2)S(=O)(=O)N1CCSCC1 (configuration not stated),78
4,CC(C)Oc1ccc(C(C)c2ccc3c(c2)Nc2ccccc2S3)cc1 (configuration not stated),17
5,C/C(=N\NC(=O)c1ccccc1C)c1ccc2c(c1)Nc1ccccc1S2,5
6,COc1ccc(OCC(=O)N2c3ccccc3Sc3ccccc32)cc1,145
7,c1ccc2c(c1)Nc1ccccc1S2 [PHENOTHIAZINE],49
8,CSc1ccc2c(c1)Nc1ccccc1S2,64
9,CC(c1ccc2c(c1)Nc1ccccc1S2)S(=O)(=O)N1CCN(C)CC1 (configuration not stated),34
10,CC(=O)c1cccc(NC(=O)CCN2c3ccccc3Sc3ccccc32)c1,4300
11,CC(c1ccc2c(c1)Nc1ccccc1S2)S(=O)(=O)N1CCN(c2ccc(F)cc2F)CC1 (configuration not stated),80
12,CC(c1cccc(Cl)c1)c1ccc2c(c1)Nc1ccccc1S2 (configuration not stated),5
13,OCc1ccc2c(c1)Nc1ccccc1S2,63
14,COc1cccc(N2CCN(S(=O)(=O)C(C)c3ccc4c(c3)Nc3ccccc3S4)CC2)c1 (configuration not stated),57
15,FC(F)(F)c1ccc2c(c1)Nc1ccccc1S2,47
16,CS(=O)(=O)c1ccc2c(c1)Nc1ccccc1S2,195
17,CC(c1ccc(C(F)(F)F)cc1)c1ccc2c(c1)Nc1ccccc1S2 (configuration not stated),6
18,CC(c1ccc(Cl)c(Cl)c1)c1ccc2c(c1)Nc1ccccc1S2 (configuration not stated),16
19,CC(c1cccc(OCc2ccccc2)c1)c1ccc2c(c1)Nc1ccccc1S2 (configuration not stated),25
20,Cc1cccc(C(C)c2ccc3c(c2)Nc2ccccc2S3)c1 (configuration not stated),5
21,CC(c1cccc(N2CCN(C)CC2)c1)c1ccc2c(c1)Nc1ccccc1S2 (configuration not stated),9
22,CCCCC(CC)CN1c2ccccc2Sc2ccccc21 (configuration not stated),> 10000
23,CCCOc1ccc(C(C)c2ccc3c(c2)Nc2ccccc2S3)cc1 (configuration not stated),62
24,C/C(=N\NC(=O)c1cccnc1)c1ccc2c(c1)Nc1ccccc1S2,71

# Now from value to compound:
row,EC50 [nM],Compound
1,71,Cc1cc(C(C)c2ccc3c(c2)Nc2ccccc2S3)ccc1OCc1ccccc1 (configuration not stated)
2,20,CCc1ccc(C(C)c2ccc3c(c2)Nc2ccccc2S3)cc1 (configuration not stated)
3,12,CC(C)c1cccc(C(C)c2ccc3c(c2)Nc2ccccc2S3)c1 (configuration not stated)
4,1130,O=C(CN1CCCC1)N1c2ccccc2Sc2ccccc21
5,264,CC(CN1c2ccccc2Sc2ccccc21)N(C)C (configuration not stated) [PROMETHAZINE]
6,30,CCOC(=O)c1cc(F)cc(C(C)c2ccc3c(c2)Nc2ccccc2S3)c1 (configuration not stated)
7,73,CC(c1ccc(C(C)(C)C)cc1)c1ccc2c(c1)Nc1ccccc1S2 (configuration not stated)
8,80,CC(c1ccc2c(c1)Nc1ccccc1S2)S(=O)(=O)N1CCN(c2ccc(F)cc2)CC1 (configuration not stated)
9,18,CCOc1ccccc1C(=O)N/N=C(\C)c1ccc2c(c1)Nc1ccccc1S2
10,9,CC(C)Cc1ccc(C(C)c2ccc3c(c2)Nc2ccccc2S3)cc1 (configuration not stated)
11,4040,CC(NC(=O)CCN1c2ccccc2Sc2ccccc21)C1CC1 (configuration not stated)
12,17,CC(c1ccc(C(F)(F)F)c(Cl)c1)c1ccc2c(c1)Nc1ccccc1S2 (configuration not stated)
13,> 10000,Cc1ccc(SCC(=O)N2c3ccccc3Sc3ccccc32)cc1
14,6,CC(c1ccc(F)cc1)c1ccc2c(c1)Nc1ccccc1S2 (configuration not stated)
15,17,c1ccc(Cc2ccc3c(c2)Nc2ccccc2S3)cc1
16,2760,CC1CCN(CC(=O)N2c3ccccc3Sc3ccccc32)CC1
17,5,CC(c1cccc(O)c1)c1ccc2c(c1)Nc1ccccc1S2 (configuration not stated)
18,439,CC(OC(=O)CCCN1C(=O)c2ccccc2C1=O)C(=O)N1c2ccccc2Sc2ccccc21 (configuration not stated)
19,> 10000,COc1ccccc1C(=O)N1c2ccccc2Sc2ccccc21
20,17,CC(c1cc(Cl)cc(Cl)c1)c1ccc2c(c1)Nc1ccccc1S2 (configuration not stated)
21,14,CCOc1cccc(C(C)c2ccc3c(c2)Nc2ccccc2S3)c1 (configuration not stated)
22,38,CC(=O)c1ccc2c(c1)Nc1ccccc1S2
23,65,C/C(=N\NC(=O)c1ccccn1)c1ccc2c(c1)Nc1ccccc1S2
24,16,CC(c1ccc(Cl)cc1)c1ccc2c(c1)Nc1ccccc1S2 (configuration not stated)

row,EC50 [nM],Compound
1,209,N#Cc1ccc2c(c1)Nc1ccccc1S2
2,60,CC(c1cc(F)cc(OCc2ccccc2)c1)c1ccc2c(c1)Nc1ccccc1S2 (configuration not stated)
3,> 10000,CN1c2ccccc2Sc2ccccc21
4,15,CC(c1cccc(C#N)c1)c1ccc2c(c1)Nc1ccccc1S2 (configuration not stated)
5,19,COc1ccc(C(C)c2ccc3c(c2)Nc2ccccc2S3)cc1C (configuration not stated)
6,> 10000,O=C(CCN1c2ccccc2Sc2ccccc21)N1CCN(CCO)CC1
7,> 10000,Cc1cnc(SCC(=O)N2c3ccccc3Sc3ccccc32)nc1
8,28,C/C(=N\NS(=O)(=O)c1ccc(C)cc1)c1ccc2c(c1)Nc1ccccc1S2
9,17,CCOc1ccc(C(C)c2ccc3c(c2)Nc2ccccc2S3)cc1 (configuration not stated)
10,21,COC(=O)c1ccc(C(C)c2ccc3c(c2)Nc2ccccc2S3)cc1Cl (configuration not stated)
11,52,CC(c1cccc(NC(=O)OC(C)(C)C)c1)c1ccc2c(c1)Nc1ccccc1S2 (configuration not stated)
12,6,CC(C)c1ccc(C(C)c2ccc3c(c2)Nc2ccccc2S3)cc1 (configuration not stated)
13,22,COc1cc(C(C)c2ccc3c(c2)Nc2ccccc2S3)ccc1C (configuration not stated)
14,88,CCOC(=O)c1ccc(NC2CCCCC2)c(N)c1
15,30,CCc1ccc2c(c1)Nc1ccccc1S2
16,14,CC(c1cccc(N2CCOCC2)c1)c1ccc2c(c1)Nc1ccccc1S2 (configuration not stated)
17,> 10000,CC(=O)c1ccccc1NC(=O)COC(=O)CCN1c2ccccc2Sc2ccccc21
18,17,CC(=NNC(=O)c1ccco1)c1ccc2c(c1)Nc1ccccc1S2
19,13,COc1cc(OC)cc(C(C)c2ccc3c(c2)Nc2ccccc2S3)c1 (configuration not stated)
20,> 10000,CCCN1c2ccccc2Sc2ccccc21
21,> 10000,COCCNC(=O)N1c2ccccc2Sc2ccccc21
22,17,CC(c1cccc(C(=O)OC(C)(C)C)c1)c1ccc2c(c1)Nc1ccccc1S2 (configuration not stated)
23,19,CC(c1ccc(Cl)c(F)c1)c1ccc2c(c1)Nc1ccccc1S2 (configuration not stated)
24,4470,O=C(c1ccncc1)N1c2ccccc2Sc2ccccc21

# Tested on: HT-29
# Test: Protection against TNFalpha/Smac-mimetic/Z-VAD-FMK-induced necroptosis in human HT-29 cells assessed as cell viability at 10 uM
# Format: functional, cell-based
# Settings: not given
row,Compound,Activity
1,CN1C(=O)C(Cc2c[nH]c3ccccc23)NC1=S (configuration not stated),Active
2,CCOC(=O)c1ccc(NC2CCCCC2)c(N)c1,inactive

# Tested on: THP-1
# Test: Protection against nigericin-induced pyroptosis in human THP-1 cells assessed as cell viability at 10 uM
# Format: functional, cell-based
# Settings: not given
row,Compound,Activity
1,CC(C)(O)c1coc(S(=O)(=O)NC(=O)Nc2c3c(cc4c2CCC4)CCC3)c1,Active

# Tested on: HT-1080
# Test: Inhibition of rotenone-induced oxidative cell death in human HT-1080 cells at 10 uM incubated for 24 hrs
# Format: functional, cell-based
# Settings: not given
row,Compound,inhibition
1,CCOC(=O)c1ccc(NC2CCCCC2)c(N)c1,inactive
